In patent US5364861A, “Optical isomers of 7-[3-(1,1-dialkylmethyl-1-amino-1-pyrrolidinyl]-quinolones and naphthyridones as antibacterial agents” (Warner-Lambert Company, priority 1993, dated 1994):
Converted amounts (≈) assume the structure as drawn. Counter-ions that a name gives are not always drawn. Like-named read-outs stand apart in the source and are kept apart here.

Key:
[1] = test system: Staph. aureus H 228; experiment: in vitro antibacterial activity, microtitration dilution (MIC), Staph. aureus H 228; type: cell-based; details: Staphylococcus aureus, H228, read-out: minimum inhibiting concentration (MIC)
Text: (§1) The in vitro antibacterial activity is obtained when tested by the microtitration dilution method as described in Heifetz, et al., Antimicr. Agents & Chemother. 1974;6:124, which is incorporated herein by reference.
(§2) By use of the above methods, the following minimum inhibiting concentration values (MICs in μg/ml), PD50 's in mg/kg, no effect phototoxicity dose in mg/kg and the cytotoxicity IC50 in μg/mL were obtained for representative enantiomers of the invention and compounds of the prior art as shown in the table.

[2] = test system: Strep. pyogenes C-203; experiment: in vitro antibacterial activity, microtitration dilution (MIC), Strep. pyogenes C-203; type: cell-based; details: Streptococcus pyogenes, C203, read-out: minimum inhibiting concentration (MIC)
Text: as §1, §2

[3] = test system: Strep. faecalis MGH-2; experiment: in vitro antibacterial activity, microtitration dilution (MIC), Strep. faecalis MGH-2; type: cell-based; details: Enterococcus faecalis, MGH2, read-out: minimum inhibiting concentration (MIC)
Text: as §1, §2

[4] = test system: Prot. rettgeri M 1771; experiment: in vitro antibacterial activity, microtitration dilution (MIC), Prot. rettgeri M 1771; type: cell-based; details: Providencia rettgeri, M1771, read-out: minimum inhibiting concentration (MIC)
Text: as §1, §2

[5] = test system: Strep. pneumoniae SV-1; experiment: in vitro antibacterial activity, microtitration dilution (MIC), Strep. pneumoniae SV-1; type: cell-based; details: Streptococcus pneumoniae, SV1, read-out: minimum inhibiting concentration (MIC)
Text: as §1, §2

[6] = test system: Esch. coli Vogel; experiment: in vitro antibacterial activity, microtitration dilution (MIC), Esch. coli Vogel; type: cell-based; details: Escherichia coli, read-out: minimum inhibiting concentration (MIC)
Text: as §1, §2

[7] = test system: Staph. aureus UC-76; experiment: in vitro antibacterial activity, microtitration dilution (MIC), Staph. aureus UC-76; type: cell-based; details: Staphylococcus aureus, UC76, read-out: minimum inhibiting concentration (MIC)
Text: as §1, §2

[8] = test system: Ent. cloacae MA2646; experiment: in vitro antibacterial activity, microtitration dilution (MIC), Ent. cloacae MA2646; type: cell-based; details: Enterobacter cloacae, read-out: minimum inhibiting concentration (MIC)
Text: as §1, §2

[9] = test system: Klebs. pneumoniae MGH-2; experiment: in vitro antibacterial activity, microtitration dilution (MIC), Klebs. pneumoniae MGH-2; type: cell-based; details: Klebsiella pneumoniae, MGH2, read-out: minimum inhibiting concentration (MIC)
Text: as §1, §2

[10] = test system: Strep. pyogenes C-203; experiment: median protective dose in mice given lethal systemic infection, Strep. pyogenes; type: in vivo; details: Streptococcus pyogenes, C203, Strep. pyogenes, single dose at time of challenge, route not given, read-out: median protective dose (PD50)
Protocol: (§3) The in vivo activity is obtained when the compounds are tested according to the procedure of Miller, et al (Proc. Soc. Exp. Biol. Med. 1944;57:261). The median protective dose (PD50) was determined in mice given lethal systemic infections. Single doses of compound were given at time of challenge.
as §2
(§4) The in vivo data as PD50 's are reported below the line of MICs for the same compound.

[11] = test system: Esch. coli Vogel; experiment: median protective dose in mice given lethal systemic infection, Esch. coli; type: in vivo; details: Escherichia coli, single dose at time of challenge, route not given, read-out: median protective dose (PD50)
Protocol: as §3, §2, §4

[12] = test system: Pseud. aeruginosa UI-18; experiment: in vitro antibacterial activity, microtitration dilution (MIC), Pseud. aeruginosa UI-18; type: cell-based; details: Pseudomonas aeruginosa, UI18, read-out: minimum inhibiting concentration (MIC)
Text: as §1, §2

[13] = cytotoxicity, colony reduction of hamster V-79 cells; type: cell-based; details: 3 hours treatment, colonies counted after 5 days, read-out: cytotoxicity IC50 (Cytotox)
Protocol: The cytotoxicity data is obtained using hamster V-79 cells. The cells were suspended in tissue culture medium and grown overnight. Cells were treated with drug for 3 hours, washed free of drug and then replated, and the colonies counted after 5 days. The concentration of drug that reduced colonies by 50% relative to control was recorded.
as §2

[14] = test system: Pseud. aeruginosa UI-18; experiment: median protective dose in mice given lethal systemic infection, Pseud. aeruginosa; type: in vivo; details: Pseudomonas aeruginosa, UI18, Pseud. aeruginosa, single dose at time of challenge, route not given, read-out: median protective dose (PD50)
Protocol: as §3, §2, §4

[15] = in vivo; design: species or system mice; details: mouse, po
Protocol: The phototoxicity data is obtained using depilated mice. Compound was administered orally each day for four successive days, followed each day by 3 hours of […] radiation. The mice were examined for any positive signs (redness, erythema) relative to control animals. The no effect dose and the 50% effect dose were determined. By use of the above methods, the following minimum inhibiting concentration values (MICs in μg/ml), PD50 's in mg/kg, no effect phototoxicity dose in mg/kg and the cytotoxicity IC50 in μg/mL were obtained for representative enantiomers of the invention and compounds of the prior art as shown in the table.

| Structure (SMILES) | MIC [1] [µg/mL] | MIC [2] [µg/mL] | MIC [3] [µg/mL] | MIC [4] [µg/mL] | MIC [5] [µg/mL] | MIC [6] [µg/mL] | MIC [7] [µg/mL] | MIC [8] [µg/mL] | MIC [9] [µg/mL] | ED50 ([10]; first line below the MICs) [mg/kg] | ED50 ([10]; second line below the MICs) [mg/kg] | ED50 ([11]; first line below the MICs) [mg/kg] | ED50 ([11]; second line below the MICs) [mg/kg] | MIC [12] [µg/mL] | CC50 at 3 h [13] [µg/mL] | ED50 ([14]; first line below the MICs) [mg/kg] | ED50 ([14]; second line below the MICs) [mg/kg] | NOAEL [15] [mg/kg] |
| --- | --- | --- | --- | --- | --- | --- | --- | --- | --- | --- | --- | --- | --- | --- | --- | --- | --- | --- |
| CC(C)(N)[C@H]1CCN(c2c(F)cc3c(=O)c(C(=O)O)cn(C4CC4)c3c2Cl)C1 [Example 1, (S)-7-[3-(1-Amino-1-methylethyl)-1-pyrrolidinyl]-8-chloro-1-cyclopropyl-6-fluoro-1,4-dihydro-4-oxo-3-quinolinecarboxylic acid, monohydrochloride] | 0.025 | 0.025 | 0.05 | 0.4 | 0.013 | 0.1 | 0.013 | 0.1 | 0.2 | 13 | 4 | 27 | 4 | 1.6 |  |  |  |  |
| CC(C)(N)[C@@H]1CCN(c2c(F)cc3c(=O)c(C(=O)O)cn(C4CC4)c3c2Cl)C1 [Example 2, (R)-7-[3-(1-Amino-1-methylethyl-1-pyrrolidinyl]-8-chloro-1-cyclopropyl-6-fluoro-1,4-dihydro-4-oxo-3-quinolinecarboxylic acid, monohydrochloride] | 0.006 | ≤ 0.003 | 0.013 | 0.2 | ≤ 0.003 | 0.05 | ≤ 0.003 | 0.05 | 0.1 | 2 | 0.14 | 8 | 1 | 0.8 | 8 | 100 | 17 |  |
| CC(C)(N)[C@H]1CCN(c2nc3c(cc2F)c(=O)c(C(=O)O)cn3C2CC2)C1.Cl [Example 3, (S)-7-[3-(1-Amino-1-methylethyl)-1-pyrrolidinyl]-1-cyclopropyl-6-fluoro-1,4-dihydro-4-oxo-1,8-naphthyridine-3-carboxylic acid, monohydrochloride] | 0.1 | 0.1 | 0.1 | 0.8 | 0.05 | 0.2 | 0.025 | 0.2 | 0.4 | 32 | 7 | 10 | 3 | 3.1 | 58 |  |  | 30 |
| CNC(C)(C)[C@@H]1CCN(c2c(F)cc3c(=O)c(C(=O)O)cn(C4CC4)c3c2Cl)C1 [Example 6, (R)-08-Chloro-1-cyclopropyl-6-fluoro-1,4-dihydro-7-{3-[1-methyl-1-(methylamino)ethyl]-1-pyrrolidinyl}-4-oxo-3-quinolinecarboxylic acid, monohydrochloride] | 0.013 | ≤ 0.003 | 0.025 | 0.4 | ≤ 0.003 | 0.2 | ≤ 0.003 | 0.2 | 0.4 | 3 | 0.5 | 11 | 2 | 3.1 |  |  |  |  |
| COc1c(N2CC[C@@H](C(C)(C)N)C2)c(F)cc2c(=O)c(C(=O)O)cn(C3CC3)c12 [Example 7, (R)-7-[3-(1-Amino-1-methylethyl)-1-pyrrolidinyl]-1-cyclopropyl-6-fluoro-1,4-dihydro-8-methoxy-4-oxo-3-quinolinecarboxylic acid] | 0.013 (≈ 0.0322 µM) | < 0.003 | 0.013 (≈ 0.0322 µM) | 0.4 (≈ 0.991 µM) | ≤ 0.003 | 0.1 (≈ 0.248 µM) | ≤ 0.003 | 0.1 (≈ 0.248 µM) | 0.2 (≈ 0.496 µM) | 3 | 0.8 | 26 | 3 | 1.6 (≈ 3.97 µM) | 18 (≈ 44.6 µM) |  |  |  |
| COc1c(N2CC[C@H](C(C)(C)N)C2)c(F)cc2c(=O)c(C(=O)O)cn(C3CC3)c12 [Example 8, (S)-7-[3-(1-Amino-1-methylethyl)-1-pyrrolidinyl]-1-cyclopropyl-6-fluoro-1,4-dihydro-8-methoxy-4-oxo-3-quinolinecarboxylic acid] | 0.05 (≈ 0.124 µM) | 0.025 (≈ 0.062 µM) | 0.05 (≈ 0.124 µM) | 0.8 (≈ 1.98 µM) | 0.025 (≈ 0.062 µM) | 0.2 (≈ 0.496 µM) | 0.013 (≈ 0.0322 µM) | 0.2 (≈ 0.496 µM) | 0.4 (≈ 0.991 µM) |  |  |  |  | 3.1 (≈ 7.68 µM) |  |  |  |  |
| CC(C)(N)[C@@H]1CCN(c2cc3c(c(N)c2F)c(=O)c(C(=O)O)cn3C2CC2)C1 [Example 9, (R)-7-[3-(1-Amino-1-methylethyl)-1-pyrrolidinyl]-5-amino-1-cyclopropyl-6-fluoro-1,4-dihydro-4-oxo-3-quinolinecarboxylic acid] | 0.025 (≈ 0.0644 µM) | 0.006 (≈ 0.0154 µM) | 0.05 (≈ 0.129 µM) | 0.8 (≈ 2.06 µM) | 0.006 (≈ 0.0154 µM) | 0.4 (≈ 1.03 µM) | 0.006 (≈ 0.0154 µM) | 0.4 (≈ 1.03 µM) | 0.8 (≈ 2.06 µM) | 11 | 2 |  |  | 3.1 (≈ 7.98 µM) | 13 (≈ 33.5 µM) |  |  |  |
| Cc1c(F)c(N2CC[C@@H](C(C)(C)N)C2)cc2c1c(=O)c(C(=O)O)cn2-c1ccc(F)cc1F [Example 10, (R)-7-[3-(1-Amino-1-methylethyl)-1-pyrrolidinyl]-1-(2,4-difluorophenyl)-6-fluoro-1,4-dihydro-5-methyl-4-oxo-3-quinolinecarboxylic acid] | 0.1 (≈ 0.218 µM) | 0.2 (≈ 0.435 µM) | 0.4 (≈ 0.871 µM) | 1.6 (≈ 3.48 µM) | 0.4 (≈ 0.871 µM) | 0.4 (≈ 0.871 µM) | 0.05 (≈ 0.109 µM) | 0.4 (≈ 0.871 µM) | 0.8 (≈ 1.74 µM) |  |  |  |  | 3.1 (≈ 6.75 µM) |  |  |  |  |
| Cc1c(F)c(N2CC[C@H](C(C)(C)N)C2)cc2c1c(=O)c(C(=O)O)cn2-c1ccc(F)cc1F [Example 11, S-7-[3-(1-amino-1-methylethyl)-1-pyrrolidinyl]-1-(2,4-difluorophenyl)-6-fluoro-1,4-dihydro-5-methyl-4-oxo-3-quinolinecarboxylic acid] | 0.025 (≈ 0.0544 µM) | 0.013 (≈ 0.0283 µM) | 0.1 (≈ 0.218 µM) | 0.4 (≈ 0.871 µM) | 0.013 (≈ 0.0283 µM) | 0.1 (≈ 0.218 µM) | 0.013 (≈ 0.0283 µM) | 0.1 (≈ 0.218 µM) | 0.2 (≈ 0.435 µM) |  |  |  |  | 1.6 (≈ 3.48 µM) |  |  |  |  |
| CC(C)(N)[C@H]1CCN(c2c(F)cc3c(=O)c(C(=O)O)cn(C4CC4)c3c2F)C1 [Example 12, (S)-7-[3-(1-Amino-1-methylethyl)-1-pyrrolidinyl]-1-cyclopropyl-6,8-difluoro-1,4-dihydro-4-oxo-3-quinolinecarboxylic acid] | 0.025 (≈ 0.0639 µM) | 0.006 (≈ 0.0153 µM) | 0.025 (≈ 0.0639 µM) | 0.4 (≈ 1.02 µM) | 0.006 (≈ 0.0153 µM) | 0.1 (≈ 0.255 µM) | ≤ 0.003 | 0.2 (≈ 0.511 µM) | 0.2 (≈ 0.511 µM) | 12 | 0.6 |  |  | 1.6 (≈ 4.09 µM) |  |  |  |  |
| CC(C)(N)C1CCN(c2nc3c(cc2F)c(=O)c(C(=O)O)cn3C2CC2)C1 (centres unmarked) [reference compound] | 0.05 (≈ 0.134 µM) | 0.025 (≈ 0.0668 µM) | 0.05 (≈ 0.134 µM) | 0.4 (≈ 1.07 µM) | 0.025 (≈ 0.0668 µM) | 0.1 (≈ 0.267 µM) | 0.013 (≈ 0.0347 µM) | 0.1 (≈ 0.267 µM) | 0.2 (≈ 0.534 µM) |  |  |  |  | 1.6 (≈ 4.27 µM) | 66 (≈ 176 µM) |  |  | 30 |
